The test system of this test is Desulfovibrio desulfuricans (vulgaris) (ATCC 7757). Put plainly: Biocidal efficacy against sulfur-reducing bacteria in 0.1 wt % polyacrylamide (colony population analysis, CFU). In kind it is cell-based. The following applies: not a side-by-side comparative study. How it is done: Example 1 illustrates the biocidal efficacy of peracetic acid, compared with glutaraldehyde, against a strain of sulfur-reducing bacteria, Desulfovibrio desulfuricans (vulgaris), present in an aqueous solution also containing 0.1 wt % polyacrylamide polymer. A range of peracetic acid and glutaraldehyde concentrations were evaluated for biocidal efficacy: 5, 10, 30, 150 and 300 ppm peracetic acid and 25 and 500 ppm glutaraldehyde.
The dilute aqueous polyacrylamide was prepared using a 50 wt % polyacrylamide solution in water, with the polyacrylamide having an average molecular weight ˜10,000 (Aldrich No. 434949, Sigma-Aldrich, St. Louis, Mo.). The peracetic acid was Vigor Ox® SP-15 antimicrobial agent, containing about 15-17 wt % peracetic acid, 9-11 wt % hydrogen peroxide and 33-38 wt % acetic acid in water (FMC Corporation, Philadelphia, Pa.), and this peracetic acid solution was diluted to 5, 10, 30, 150 and 300 ppm peracetic acid for the various evaluations. The glutaraldehyde used in this Example 1 was a 25 wt % glutaraldehyde solution in water (Sigma-Aldrich No. G4004, Sigma-Aldrich, St. Louis, Mo.), diluted to either 25 or 500 ppm for the evaluations. […]
Peracetic acid and glutaraldehyde were next evaluated for biocidal efficacy against the sulfur-reducing bacterium Desulfovibrio vulgaris. […]

As to Peracetic acid, the “biocidal efficacy against D. vulgaris compared with the glutaraldehyde treatment” value is reported as “at least equivalent in performance”.
